According to US6737433B1, “1-N-phenylamino-1H-imidazole derivatives as aromatase inhibitors and pharmaceutical compositions containing them” (Laboratoire Theramex, priority 2002, dated 2004):
Where a name gives a salt, the structure may show the parent alone.

What was measured:
human aromatase = target: T1, human aromatase (Homo sapiens, UniProt P11511); test: Inhibition of human aromatase in vitro in JEG-3 cells (3H-water release from 1β-3H-androstenedione); assay type: cell-based; conditions: 10 nM 1β-3H-androstenedione, 2 h incubation
T1 construct: The JEG-3 cell line, derived from a human placental choriocarcinoma, is intrinsically very rich in human aromatase; endogenous in cells; host or cells: JEG-3 (human placental choriocarcinoma)
T1 sequence (P11511 1-503): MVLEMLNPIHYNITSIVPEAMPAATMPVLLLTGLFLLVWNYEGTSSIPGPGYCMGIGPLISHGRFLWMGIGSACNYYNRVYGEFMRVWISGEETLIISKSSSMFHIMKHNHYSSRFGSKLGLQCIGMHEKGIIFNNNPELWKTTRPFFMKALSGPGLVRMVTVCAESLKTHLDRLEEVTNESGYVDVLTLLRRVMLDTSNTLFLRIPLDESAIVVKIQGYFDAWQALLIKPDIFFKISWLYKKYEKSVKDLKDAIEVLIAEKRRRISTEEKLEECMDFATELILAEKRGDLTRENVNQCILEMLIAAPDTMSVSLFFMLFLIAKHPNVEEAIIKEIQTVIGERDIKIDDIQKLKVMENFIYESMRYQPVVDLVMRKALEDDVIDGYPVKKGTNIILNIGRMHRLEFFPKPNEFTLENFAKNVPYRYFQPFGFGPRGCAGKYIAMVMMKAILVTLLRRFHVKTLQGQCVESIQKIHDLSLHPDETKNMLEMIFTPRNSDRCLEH
Experimental: Stocks of JEG-3 cells are grown up to 80% of confluence as monolayers in plastic flasks in minimum Eagle's medium with 1 g/l glucose and 10% decomplemented fetal calf serum at pH 7.4 and 37° C., under a 5% CO2 atmosphere. Then, 24 hours before aromatase activity measurement, JEG-3 cells are distributed for seeding in 96-well microplates (60,000 to 100,000 viable cells in 100 μl of culture medium per well); 24 hours later, microplates are rinsed and fresh medium containing the radioactive aromatase substrate (1β-^3H-androstenedione, 10 nM) is added together with test compounds dissolved with 1% dimethylsulfoxyde in a test concentration range between 10^−11 and 10^−4 M in a total volume of 150 μl.
Two hours after the beginning of the incubation, 100 μl of the supernatants are transferred to homologous new 96-well microplates. A solution of dextran-coated charcoal (1%) is added in each well (100 μl/well); after standing for 10 minutes on ice, microplates are centrifuged (1500 g) for 10 more minutes at 4° C. All steroids, including the radioactive substrate and the newly biosynthesized estrogens, are trapped complexed by the charcoal; only the ^3H-water specifically formed during aromatisation of 1β-^3H-androstenedione, involving a specific oxidative step removing the 1β-^3H, remains in the supernatant at this stage.
Finally, aromatase activity is expressed in fmoles/μg DNA in 2 hours and aromatase inhibition in percentage of control incubation without inhibitors.

Compound	melting point	IC50 (human aromatase)
N#Cc1ccc(N(Cc2ccc(F)cc2)n2ccnc2)cc1 (as salt: hydrochloride) (hydrate or solvate) [Example 14, 4-[N-(1H-imidazol-1-yl)-N-(4-fluorophenylmethyl)amino]benzonitrile]	176 to 178 °C	–
N#Cc1ccc(N(Cc2ccc(Cl)cc2)n2ccnc2)cc1 (as salt: hydrochloride) [Example 7, 4-[N-(1H-imidazol-1-yl)-N-(4-chlorophenylmethyl)amino]benzonitrile]	190 °C	–
COc1ccc(CN(c2ccc(C#N)cc2)n2ccnc2)cc1 (as salt: hydrochloride) [Example 8, 4-[N-(1H-imidazol-1-yl)-N-(4-methoxyphenylmethyl)amino]benzonitrile]	178 °C	–
COc1ccc(CN(c2ccc(C#N)cc2)n2ccnc2)cc1F (as salt: hydrochloride) [Example 9, 4-[N-(1H-imidazol-1-yl)-N-(3-fluoro-4-methoxyphenylmethyl)amino]benzonitrile]	190 °C	–
N#Cc1ccc(CN(c2ccc(C#N)cc2)n2ccnc2)cc1 (as salt: hydrochloride) [Example 11, 4-[N-(1H-imidazol-1-yl)-N-(4-cyanophenylmethyl)amino]benzonitrile]	195 °C	–
COc1ccc(CN(c2ccc(C#N)cc2)n2ccnc2)cc1OC (as salt: hydrochloride) [Example 12, 4-[N-(1H-imidazol-1-yl)-N-(3,4-dimethoxyphenylmethyl)amino]benzonitrile]	167 °C	–
N#Cc1ccc(N(c2ccc(C#N)cc2)n2ccnc2)cc1 (as salt: hydrochloride) [Example 13, 4,4′-[N-(1H-imidazol-1-yl)amino]bis-benzonitrile]	199 °C	–
N#Cc1ccc(N(c2ccc(C(F)(F)F)cc2)n2ccnc2)cc1 [Example 5, 4-[N-(1H-imidazol-1-yl)-N-(4-trifluoromethylphenyl)amino]benzonitrile]	–	0.54 ± 0.26 nM
COc1ccc(CN(c2ccc(C#N)cc2)n2ccnc2)cc1 [Example 8, 4-[N-(1H-imidazol-1-yl)-N-(4-methoxyphenylmethyl)amino]benzonitrile]	–	0.14 ± 0.05 nM
COc1ccc(CN(c2ccc(C#N)cc2)n2ccnc2)cc1F [Example 9, 4-[N-(1H-imidazol-1-yl)-N-(3-fluoro-4-methoxyphenylmethyl)amino]benzonitrile]	–	0.16 ± 0.06 nM
N#Cc1ccc(N(c2ccc(C#N)cc2)n2ccnc2)cc1 [Example 13, 4,4′-[N-(1H-imidazol-1-yl)amino]bis-benzonitrile]	–	0.44 ± 0.04 nM
CS(=O)(=O)c1ccc(CN(c2ccc(C#N)cc2)n2ccnc2)cc1 [Example 16, 4-[N-(1H-imidazol-1-yl)-N-(4-methylsulfonylphenylmethyl)amino]benzonitrile]	–	0.35 ± 0.07 nM
N#Cc1ccc(N(Cc2ccccc2)n2ccnc2)cc1 [Example 24, 4-[N-(1H-imidazol-1-yl)-N-(phenylmethyl)amino]benzonitrile]	107 °C	0.18 ± 0.09 nM
COC(=O)c1ccc(CN(c2ccc(C#N)cc2)n2ccnc2)cc1 [Example 27, Methyl 4-[N-(4-cyanophenyl)-N-(1H-imidazol-1-yl)aminomethyl]benzoate]	178 °C	–
N#Cc1ccc(N(c2ccc(F)cc2)n2ccnc2)cc1 [Example 28, 4-[N-(1H-imidazol-1-yl)-N-(4-fluorophenyl)amino]benzonitrile]	113 °C	1.57 ± 0.74 nM
Cc1cn(N(Cc2ccc(Br)cc2)c2ccc(C#N)cc2)cn1 [Example 30, 4-[N-(4-methyl-1H-imidazol-1-yl)-N-(4-bromophenylmethyl)amino]benzonitrile]	152 °C	1.16 ± 0.55 nM
Cc1cncn1N(Cc1ccc(Br)cc1)c1ccc(C#N)cc1 [Example 31, 4-[N-(5-methyl-1H-imidazol-1-yl)-N-(4-bromophenylmethyl)amino]benzonitrile]	152 °C	0.58 ± 0.18 nM
Cc1ncn(N(Cc2ccc(Br)cc2)c2ccc(C#N)cc2)c1C [Example 32, 4-[N-(4,5-dimethyl-1H-imidazol-1-yl)-N-(4-bromophenylmethyl)amino]benzonitrile]	150 °C	–

Second part, the compound after the results:

melting point	IC50 (human aromatase)	Compound
125 °C	–	N#Cc1ccc(N(Cc2ccc(Br)cc2)n2ccnc2)cc1 (as salt: hydrochloride) [Example 20, 4-[N-(1H-imidazol-1-yl)-N-(4-bromophenylmethyl)amino]benzonitrile]
156 °C	0.14 ± 0.03 nM	Cc1ccc(CN(c2ccc(C#N)cc2)n2ccnc2)cc1 [Example 10, 4-[N-(1H-imidazol-1-yl)-N-(4-methylphenylmethyl)amino]benzonitrile]
128 °C	0.21 ± 0.05 nM	CSc1ccc(CN(c2ccc(C#N)cc2)n2ccnc2)cc1 [Example 15, 4-[N-(1H-imidazol-1-yl)-N-(4-methylthiophenylmethyl)amino]benzonitrile]
149 °C	0.14 ± 0.01 nM	N#Cc1ccc(N(Cc2ccc(F)cc2F)n2ccnc2)cc1 [Example 18, 4-[N-(1H-imidazol-1-yl)-N-(2,4-difluorophenylmethyl)amino]benzonitrile]
170 °C	0.4 ± 0.06 nM	N#Cc1ccc(N(Cc2cc(F)cc(F)c2)n2ccnc2)cc1 [Example 19, 4-[N-(1H-imidazol-1-yl)-N-(3,5-difluorophenylmethyl)amino]benzonitrile]
–	0.22 ± 0.05 nM	N#Cc1ccc(N(Cc2ccc(Br)cc2)n2ccnc2)cc1 [Example 20, 4-[N-(1H-imidazol-1-yl)-N-(4-bromophenylmethyl)amino]benzonitrile]
138 °C	1.12 ± 0.55 nM	N#Cc1ccc(CN(c2ccc(Br)cc2)n2ccnc2)cc1 [Example 21, 4-[N-(1H-imidazol-1-yl)-N-(4-bromophenyl)aminomethyl]benzonitrile]
184 °C	0.2 ± 0.05 nM	Cn1nnc2ccc(N(Cc3ccc(C#N)cc3)n3ccnc3)cc21 [Example 22, 4-[N-(1-methylbenzotriazol-6-yl)-N-(1H-imidazol-1-yl)aminomethyl]benzonitrile]
226 °C	0.48 ± 0.13 nM	N#Cc1ccc(CN(c2ccc(C#N)cc2C(F)(F)F)n2ccnc2)cc1 [Example 23, 4-[N-(1H-imidazol-1-yl)-N-(4-cyanophenylmethyl)amino]-3-trifluoromethylbenzonitrile]
166 °C	0.66 ± 0.14 nM	N#Cc1ccc(N(c2ccc(C#N)cc2C(F)(F)F)n2ccnc2)cc1 [Example 25, 4-[N-(1H-imidazol-1-yl)-N-(4-cyanophenyl)amino]-3-trifluoromethylbenzonitrile]
112 °C	0.13 ± 0.05 nM	N#Cc1ccc(N(Cc2cccc(F)c2)n2ccnc2)cc1 [Example 26, 4-[N-(1H-imidazol-1-yl)-N-(3-fluorophenylmethyl)amino]benzonitrile]
122 °C	0.19 ± 0.05 nM	N#Cc1ccc(N(Cc2cccc(C(F)(F)F)c2)n2ccnc2)cc1 [Example 29, 4-[N-(1H-imidazol-1-yl)-N-(3-trifluoromethylphenylmethyl)amino]benzonitrile]
